Tests used:
Male Swiss Webster mice [1] = experiment: Tail suspension test; format: in vivo; settings: for decrease in immobility time: cotreated 30 minutes prior to the test
Description: Compound 1, [drawing 11] was used to exemplify the effectiveness of compounds of the present invention in the tail suspension test. While not a direct model of depression, the tail suspension test is an assay that can evaluate antidepressant-like effects of drugs. […] Specifically, they decrease the amount of time the mice spend immobile after being hung upside down by their tails during the test. It is impossible to determine if a mouse is indeed depressed. However, the fact that clinically effective antidepressants reduce immobility lends predictive validity to the model. Animals
Male Swiss Webster mice (Charles River) weighing 25-35 g were used throughout this study. They were housed in groups of five per cage in an AALAC-accredited facility that was maintained on a 12-h light dark cycle (lights on at 0600 h) and had free access to food and water. Experimental groups consisted of 12 mice, randomly assigned to treatment groups. All experiments were performed between 9:00 AM and noon in accordance to the Guide for the Care and Use of Laboratory Animals as adopted and promulgated by the National Institutes of Health (Pub. 85-23, 1985).
Solutions of Compound 1 and paroxetine were freshly prepared; each dissolved in distilled water. All drugs were injected i.p. at a volume of 10 ml/kg body weight. Combination treatments were cotreated, 30 minutes prior to the test.
The procedure followed in this study was a variant of the one originally described by Steru et al. (1985). 30 minutes following treatment, the mice were suspended upside down by the tail using adhesive laboratory tape (VWR International), to a flat metal bar connected to a strain gauge within a tail suspension chamber (Med Associates). The time spent immobile during a 6-minute test session was automatically recorded. 8 mice were simultaneously tested within separate chambers. Data collected were expressed as a mean of immobility time and statistical analysis was performed using a one-way ANOVA with least significant difference (LSD) post-hoc test.

Male Swiss Webster mice [2] = settings: general statement on clinically effective drugs; cited from earlier work

Fc1ccc([C@@H]2CCNC[C@H]2COc2ccc3c(c2)OCO3)cc1 (relative stereo) [paroxetine, trans-(−)-3-[(1,3-benzodioxol-5-yloxy)methyl]-4-(4-fluorophenyl)piperidine, reference compound]
decrease in immobility (Male Swiss Webster mice [1]; 30 mg/kg paroxetine alone, i.p., 30 minutes prior to the test, ns): 18%

c1cc2c3c(c1)[C@H]1CCC[C@H]1N3CCNC2 [Compound 1]
decrease in immobility time (Male Swiss Webster mice [1]; 1 mg/kg Compound 1 in combination with 30 mg/kg paroxetine, i.p.): 24%
decrease in immobility time (Male Swiss Webster mice [1]; 3 mg/kg Compound 1 in combination with 30 mg/kg paroxetine, i.p.): 35%
antidepressant-like effect (immobility time) in tail suspension test (Male Swiss Webster mice [1]; Compound 1 alone, 1 or 3 mg/kg i.p., 30 minutes prior to the test, 6-minute session): Neither dose of Compound 1 (1 or 3 mg/kg) produced an antidepressant-like effect alone

CNCCC(Oc1ccc(C(F)(F)F)cc1)c1ccccc1 (centres unmarked) [fluoxetine, N-methyl-3-(p-trifluoromethylphenoxy)-3-phenylpropylamine]
effectiveness in tail suspension assay (decrease of time spent immobile) (Male Swiss Webster mice [2]): effective in this assay

Reference: US20070225279A1, “Therapeutic combinations for the treatment of depression” (Wyeth, priority 2006, published 2007)
